Source: patent US9895346B2, “Applications of substituent benzyloxy group containing ether compounds for preparing antitumor drugs” (Sinochem Corporation, priority 2013, dated 2018)

What was measured:
[1] = system: lung cancer cell line H520; test: In vitro cell inhibition assay (crystal violet), lung cancer H520; type: cell-based, human
Source text: (§1) In vitro Cell inhibition assay is as follows:
(§2) The human cancer cell lines used for this assay were bladder cancer J82, T24, prostate cancer LNCap, PC-3, lung cancer A549, H157, H460, H520, colon cancer HCT8, HCT116, RkO, and leukemia HL-60, etc.
(§3) In vitro cell culture technology was selected for the determination of inhibition rate bladder cancer cell lines J82 and T24, prostate cancer cell lines LNCap and PC-3, lung cancer cell lines A549, H157, H460 and H520. 1000 to 3000 cells were inoculated to 24-well plate, followed by addition of 1 mL culture medium well known to researchers in this field to each well, the cells were cultured in 5% incubator for 24 hours at 37° C., then the different concentration compounds and controls were added to each well. It should be noted that the added volume is not more than 0.5% of total volume. After completion of addition, the cells continued being cultured in incubator for one week, the culture medium was removed and washed by cold PBS of 1 mL once, and then fixed for 10 minutes at room temperature with 1% formalin, followed by wash with PBS of 1 mL. After fixation, stain was carried out with 0.1% crystal violet for 30 minutes. 0.1% crystal violet was recycled. The stained cells were washed gently with deionized water, dried at room temperature and kepted. The inhibition rate was calculated according to the foiling equation. The controls are Selumetinib (AZD6244), Gefitinib, Cisplatin. Inhibition rate=number of left cells each treatment/number of left cells of untreated control×100%

[2] = system: colon cancer HCT8; test: In vitro cell inhibition assay, colon cancer HCT8; type: cell-based, human
Source text: as §1, §2

[3] = system: colon cancer RkO; test: In vitro cell inhibition assay, colon cancer RkO; type: cell-based, human
Source text: as §1, §2

[4] = system: lung cancer cell line A549; test: In vitro cell inhibition assay (crystal violet), lung cancer A549; type: cell-based, human
Source text: as §1, §2, §3

[5] = system: colon cancer HCT116; test: In vitro cell inhibition assay, colon cancer HCT116; type: cell-based, human
Source text: as §1, §2

[6] = system: lung cancer cell line H460; test: In vitro cell inhibition assay (crystal violet), lung cancer H460; type: cell-based, human
Source text: as §1, §2, §3

[7] = system: bladder cancer cell line J82; test: In vitro cell inhibition assay (crystal violet), bladder cancer J82; type: cell-based, human; conditions: Homo sapiens, read-out: Inhibition rate on human cancer cells
Source text: as §1, §2, §3

[8] = system: human leukemia HL-60 cells; test: Proliferation inhibition of human leukemia HL-60 cells, MTT method; type: cell-based; conditions: 48 h incubation, OPTI-MEM medium
Protocol: The inhibition rate of human leukemia HL-60 cells was evaluated by regular MTT method. The human leukemia HL-60 cells were picked up from cell incubator, after washed for twice using PBS, cells were digested by 0.25% trypsin, and then add medium to terminate the digestion. After cells were collected using centrifuge and re-suspended, counting cells under inverted microscope and adding medium to make a density which was 5×10^4 cells/mL. After 100 μL aliquots were added to each well of 96-well microtiter plates, cells were cultured in 5% incubator for overnight at 37° C., then the different concentration compounds were added to each well. After incubation for 48 h, MTT solution was added to each well and plates were then incubated for 4 h. The MTT tetrazolium was reduced to formazan by living cells. Then the formazan crystals were dissolved though adding DMSO to each well. The absorbance was read at 570 nm with a microplate reader.

Row | SMILES | Inhibition rate on human cancer cells ([1]; H520, 0.25 μM) | Inhibition rate on human cancer cells ([1]; H520, 0.5 μM) | Inhibition rate on human cancer cells ([1]; H520, 1.0 μM) | Inhibition rate on human cancer cells ([1]; H520, 2.5 μM) | Inhibition rate on human cancer cells ([1]; H520, 5.0 μM) | Inhibition rate on human cancer cells ([4]; A549, 1.0 μM) | Inhibition rate on human cancer cells ([4]; A549, 2.5 μM) | Inhibition rate on human cancer cells ([4]; A549, 5.0 μM) | Inhibition rate on human cancer cells ([6]; H460, 1.0 μM) | Inhibition rate on human cancer cells ([6]; H460, 2.5 μM) | Inhibition rate on human cancer cells ([6]; H460, 5.0 μM) | Proliferation inhibitory effect on human leukemia HL-60 cell (%) ([8]; concentration 1 μM) | Proliferation inhibitory effect on human leukemia HL-60 cell (%) ([8]; concentration 10 μM) | Proliferation inhibitory effect on human leukemia HL-60 cell (%) ([8]; concentration 100 μM) | also measured
1 | COC=C(C(=O)OC)c1ccccc1COc1ccc2c3c(c(=O)oc2c1C)CCCC3 [Compound 28-129] | 85% | 95% | 100% | 100% | 100% | 100% | 100% | 100% | 95% | 100% | 100% | – | – | – | Inhibition rate on human cancer cells ([2]; HCT 8, 0.25 μM): 80%; Inhibition rate on human cancer cells ([2]; HCT 8, 0.5 μM): 95%; Inhibition rate on human cancer cells ([2]; HCT 8, 1.0 μM): 100%; Inhibition rate on human cancer cells ([2]; HCT 8, 2.5 μM): 100%; Inhibition rate on human cancer cells ([2]; HCT 8, 5.0 μM): 100%; Inhibition rate on human cancer cells ([3]; 0.25 μM): 85%; Inhibition rate on human cancer cells ([3]; 0.5 μM): 99%; Inhibition rate on human cancer cells ([3]; 1.0 μM): 100%; Inhibition rate on human cancer cells ([3]; 2.5 μM): 100%; Inhibition rate on human cancer cells ([3]; 5.0 μM): 100%; Inhibition rate on human cancer cells ([4]; A549, 0.25 μM): 90%; Inhibition rate on human cancer cells ([4]; A549, 0.5 μM): 95%; Inhibition rate on human cancer cells ([5]; HCT 116, 0.25 μM): 90%; Inhibition rate on human cancer cells ([5]; HCT 116, 0.5 μM): 95%; Inhibition rate on human cancer cells ([5]; HCT 116, 1.0 μM): 100%; Inhibition rate on human cancer cells ([5]; HCT 116, 2.5 μM): 100%; Inhibition rate on human cancer cells ([5]; HCT 116, 5.0 μM): 100%; Inhibition rate on human cancer cells ([6]; H460, 0.5 μM): 70%
2 | CO/C=C(/C(=O)OC)c1ccccc1COc1ccc(C(F)(F)F)cc1Cl [compound B, flufenoxystrobin] | – | – | – | – | – | – | – | – | – | – | – | – | – | – | inhibition at 0.25 µM ([7]; J82, 0.25 μM): 0%; inhibition at 0.5 µM ([7]; J82, 0.5 μM): 50%; inhibition at 1 µM ([7]; J82, 1.0 μM): 90%; inhibition at 2.5 µM ([7]; J82, 2.5 μM): 95%; inhibition at 5 µM ([7]; J82, 5.0 μM): 100%
3 | CCCc1c(C)c2ccc(OCc3ccccc3C(=COC)C(=O)OC)cc2oc1=O [Compound 28-27] | – | 95% | 100% | 100% | 100% | 80% | 90% | 95% | 80% | 95% | 95% | 59.0% | 79.9% | 83.9% | –
4 | COC=C(C(=O)OC)c1ccccc1COc1ccc2c(C(F)(F)F)cc(=O)oc2c1 [Compound 28-7] | – | – | – | 80% | 100% | – | 70% | 90% | – | 80% | 95% | 42.3% | 71.0% | 83.9% | –
5 | COC=C(C(=O)OC)c1ccccc1COc1ccc2c(C)cc(=O)oc2c1 [Compound 28-2] | – | – | – | – | – | – | – | – | – | – | 95% | 6.0% | 49.2% | 71.3% | –
6 | COC=C(C(=O)OC)c1ccccc1COc1ccc2c3c(c(=O)oc2c1)CCCC3 [Compound 28-128] | 70% | 100% | 100% | 100% | 100% | 100% | 100% | 100% | 100% | 100% | 100% | – | – | – | Inhibition rate on human cancer cells ([2]; HCT 8, 0.25 μM): 95%; Inhibition rate on human cancer cells ([2]; HCT 8, 0.5 μM): 100%; Inhibition rate on human cancer cells ([2]; HCT 8, 1.0 μM): 100%; Inhibition rate on human cancer cells ([2]; HCT 8, 2.5 μM): 100%; Inhibition rate on human cancer cells ([2]; HCT 8, 5.0 μM): 100%; Inhibition rate on human cancer cells ([3]; 0.25 μM): 99%; Inhibition rate on human cancer cells ([3]; 0.5 μM): 100%; Inhibition rate on human cancer cells ([3]; 1.0 μM): 100%; Inhibition rate on human cancer cells ([3]; 2.5 μM): 100%; Inhibition rate on human cancer cells ([3]; 5.0 μM): 100%; Inhibition rate on human cancer cells ([4]; A549, 0.25 μM): 70%; Inhibition rate on human cancer cells ([4]; A549, 0.5 μM): 100%; Inhibition rate on human cancer cells ([5]; HCT 116, 0.25 μM): 95%; Inhibition rate on human cancer cells ([5]; HCT 116, 0.5 μM): 100%; Inhibition rate on human cancer cells ([5]; HCT 116, 1.0 μM): 100%; Inhibition rate on human cancer cells ([5]; HCT 116, 2.5 μM): 100%; Inhibition rate on human cancer cells ([5]; HCT 116, 5.0 μM): 100%; Inhibition rate on human cancer cells ([6]; H460, 0.25 μM): 80%; Inhibition rate on human cancer cells ([6]; H460, 0.5 μM): 100%
7 | COC=C(C(=O)OC)c1ccccc1COc1ccc2c(C)c(F)c(=O)oc2c1 [Compound 28-50] | 30% | 50% | 60% | 80% | 100% | – | – | 90% | 70% | 90% | 95% | 47.1% | 83.1% | 84.8% | –
8 | COC=C(C(=O)OC)c1ccccc1COc1ccc2c(-c3ccc(Cl)nc3)cc(=O)oc2c1 [Compound 28-124] | – | – | – | – | 70% | – | – | – | – | – | 75% | 0.5% | 29.3% | 27.8% | –
9 | COC=C(C(=O)OC)c1ccccc1COc1ccc2c(C)c(C)c(=O)oc2c1C [Compound 28-6] | – | – | – | – | – | – | – | – | – | – | – | 48.2% | 53.0% | 52.0% | –
10 | COC=C(C(=O)OC)c1ccccc1COc1ccc2c3c(c(=O)oc2c1)CCC3 [Compound 28-125] | – | – | – | – | – | – | – | – | – | – | – | 47.0% | 73.8% | 85.0% | –
